A short description of this data set: Measurement of log P values by HPLC on reversed phase columns (methods [a] pH 2.3, [b] pH 2.7, [c] pH 7.8). The format is physicochemical. Particulars: for chromatographic logP: reversed phase HPLC columns. The gist of the method: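 Retention times were converted to log P by linear interpolation between linear alkan-2-one standards (3 to 16 carbons) of known log P. Eluents, each with 10% to 95% acetonitrile gradient: phosphoric acid 0.1% at pH 2.3 [a]; formic acid 0.1% at pH 2.7, LC-MS [b]; ammonium hydrogen carbonate 0.001 molar at pH 7.8, LC-MS [c].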

[1] abbreviates: HPLC on reversed phase column, method [b], pH 2.7.
Where [2] appears, read: HPLC on reversed phase columns, method [b], pH 2.7.
Setting [3] is: HPLC-MS, method letter not given, read-out: log P.
The mark [4] stands for this setting: HPLC reversed phase, method [b] (pH 2.7).
The mark [5] stands for this setting: HPLC reversed phase, method [c] pH 7.8.

The term log P denotes a log measure of how a compound divides between an organic and an aqueous phase.

Where two headings read alike, the source gives them in different places.

Consider `O=C(N[C@@H]1CC[C@H]1c1ccc(Cl)cc1Cl)c1cccnc1Cl` (relative stereo) [Example 674], for which the logP under setting [1] is 3.16^[b]. Same read-out and setting: the result for `O=C(N[C@@H]1CC[C@H]1c1ccc(Cl)cc1Cl)c1nccnc1Cl` (relative stereo) [Example 675] reads 3.43^[b]; that for `O=C(N[C@@H]1CC[C@@H]1c1ccc(Cl)cc1Cl)c1nccnc1Cl` (relative stereo) [Example 676], 3.05^[b].

`O=C(N[C@@H]1CC[C@H]1c1ccc(Cl)cc1C(F)(F)F)c1ccccc1I` (relative stereo) [Example 677]: the logP under setting [1] was 4.20^[b]. The same measure, in the same setting: the value for `O=C(N[C@@H]1CC[C@@H]1c1ccc(Cl)cc1C(F)(F)F)c1ccccc1I` (relative stereo) [Example 678] was 3.90^[b].

With `O=C(N[C@@H]1CC[C@H]1c1ccc(Cl)cc1C(F)(F)F)c1ccccc1` (relative stereo) [Example 679], the logP under setting [1] was 3.87^[b]. In the case of `O=C(N[C@@H]1CC[C@@H]1c1ccc(Cl)cc1C(F)(F)F)c1ccccc1` (relative stereo) [Example 680], the logP under setting [1] was 3.51^[b]. On the same count and under the same terms, the value for `O=C(N[C@@H]1CC[C@H]1c1ccc(Cl)cc1C(F)(F)F)c1ccccc1Cl` (relative stereo) [Example 697] was 4.01^[b]; that for `O=C(N[C@@H]1CC[C@H]1c1ccc(Cl)cc1C(F)(F)F)c1ncccc1Cl` (relative stereo) [Example 698] was 3.84^[b]; that for `O=C(N[C@@H]1CC[C@@H]1c1ccc(Cl)cc1C(F)(F)F)c1ncccc1Cl` (relative stereo) [Example 699] was 3.49^[b]. With `O=C(N[C@@H]1CC[C@H]1c1ccc(Cl)cc1C(F)(F)F)c1ncc(C(F)(F)F)cc1Cl` (relative stereo) [Example 700], the logP under setting [1] was 4.65^[b].

For `O=C(N[C@@H]1CC[C@H]1c1ccc(Cl)cc1C(F)(F)F)c1c(F)cccc1F` (relative stereo) [Example 701], the logP under setting [1] is 3.75^[b]. Regarding `O=C(N[C@@H]1CC[C@@H]1c1ccc(Cl)cc1C(F)(F)F)c1c(F)cccc1F` (relative stereo) [Example 702], the logP under setting [1] is 3.52^[b].

On to `O=C(N[C@@H]1CC[C@H]1c1ccc(Cl)cc1C(F)(F)F)c1ccccc1C(F)(F)F` (relative stereo) [Example 703], for which the logP under setting [1] was 4.10^[b].

Regarding `O=C(N[C@@H]1CC[C@@H]1c1ccc(Cl)cc1C(F)(F)F)c1ccccc1C(F)(F)F` (relative stereo) [Example 704], the logP under setting [1] was 3.84^[b]. Still for that read-out and setting: the result for `O=C(N[C@@H]1CC[C@@H]1c1ccc(Cl)cc1C(F)(F)F)c1ccc(Cl)cc1Cl` (relative stereo) [Example 705] reads 4.27^[b]. On the same count and under the same terms, the value for `O=C(N[C@@H]1CC[C@H]1c1ccc(Cl)cc1C(F)(F)F)c1ccc(Cl)cc1` (relative stereo) [Example 706] was 4.43^[b]; that for `O=C(N[C@@H]1CC[C@@H]1c1ccc(Cl)cc1C(F)(F)F)c1ccc(Cl)cc1` (relative stereo) [Example 707] was 4.04^[b]. As for `O=C(N[C@@H]1CC[C@H]1c1ccc(Cl)cc1C(F)(F)F)c1cccc(Cl)c1` (relative stereo) [Example 708], under setting [1], the logP is 4.46^[b]. For the compound `O=C(N[C@@H]1CC[C@@H]1c1ccc(Cl)cc1C(F)(F)F)c1cccc(Cl)c1` (relative stereo) [Example 709], under setting [1], the logP was 4.05^[b]. For the compound `O=C(N[C@@H]1CC[C@H]1c1ccc(Cl)cc1C(F)(F)F)c1ccccc1[N+](=O)[O-]` (relative stereo) [Example 712], under setting [1], the logP was 3.61^[b]. For the compound `O=C(N[C@@H]1CC[C@@H]1c1ccc(Cl)cc1C(F)(F)F)c1ccccc1[N+](=O)[O-]` (relative stereo) [Example 713], the logP under setting [1] is 3.36^[b]. Same read-out and setting: the value for `O=C(N[C@@H]1CC[C@@H]1c1ccc(Cl)cc1C(F)(F)F)c1cccnc1` (relative stereo) [Example 714] was 2.50^[b]; that for `O=C(N[C@@H]1CC[C@H]1c1ccc(Cl)cc1C(F)(F)F)c1cccnc1Cl` (relative stereo) [Example 715] was 3.33^[b]; that for `O=C(N[C@@H]1CC[C@H]1c1ccc(Cl)cc1C(F)(F)F)c1nccnc1Cl` (relative stereo) [Example 716] was 3.56^[b]. As to `O=C(N[C@@H]1CC[C@@H]1c1ccc(Cl)cc1C(F)(F)F)c1nccnc1Cl` (relative stereo) [Example 717], the logP under setting [2] was 3.24^[b]. Take `Cn1cc(C(=O)NC2CCC2c2ccc(Cl)cc2Cl)c(C(F)F)n1` (single isomer, unassigned) [Preparation Example 2 cis-Isomer, cis-N-[2-(2,4-dichlorophenyl)cyclobutyl]-3-(difluoromethyl)-1-methyl-1H-pyrazole-4-carboxamide]: the chromatographic logP under setting [3] is 2.95. As to `Cn1cc(C(=O)NC2CCC2c2ccc(Cl)cc2Cl)c(C(F)F)n1` (single isomer, unassigned) [Preparation Example 2 trans-Isomer, trans-N-[2-(2,4-dichlorophenyl)cyclobutyl]-3-(difluoromethyl)-1-methyl-1H-pyrazole-4-carboxamide], the “log P” value (HPLC-MS, method letter not given) was 3.26. In the case of `O=C(N[C@H]1CCC1c1ccccc1C(F)(F)F)c1ccccc1Cl` (stereo in doubt) [Preparation Example 4, cis-2-chloro-N-{2-[2-(trifluoromethyl)phenyl]cyclobutyl}benzamide], under setting [3], the chromatographic logP worked out at 3.3. The same measure, in the same setting: the result for `O=C(N[C@H]1CCC1c1ccccc1C(F)(F)F)c1ccccc1I` (stereo in doubt) [Preparation Example 5, cis-2-iodo-N-{2-[2-(trifluoromethyl)phenyl]cyclobutyl}benzamide] reads 3.44. Take `O=C(NC1CC1c1ccc(Cl)cc1)c1sccc1Cl` (stereo not shown) [Compound 203]: the logP was 3.51^[b] (method [b], HPLC reversed phase, pH 2.7) and 3.45^[c]; (method [c], HPLC reversed phase, pH 7.8).

`O=C(NC1CCC1c1ccccc1Cl)c1ncccc1Cl` (stereo not drawn) [Compound 238, trans-3-chloro-N-[2-(2-chlorophenyl)cyclobutyl]pyridine-2-carboxamide]: the chromatographic logP was 3.06 under setting [3] and 3.06 (pH 2.7, method [b], HPLC reversed phase, pH 2.7, read-out: logP). `O=C(NC1CC1c1ccc(Cl)cc1)c1ccccc1I` (stereo not shown) [Compound 273]: the logP by setting is: under setting [4], 2.94^[b]; under setting [5], 2.88^[c];.

As for `O=C(NC1CC1c1ccc(Cl)cc1)c1cccnc1Cl` (stereo not shown) [Compound 274], the logP was 2.14^[b] under setting [4] and 2.10^[c]; under setting [5]. Take `Cc1ccccc1C(=O)NC1CC1c1ccc(Cl)cc1` (stereo not shown) [Compound 276]: the logP was 2.76^[b] under setting [4] and 2.70^[c]; under setting [5]. Regarding `O=C(NC1CCCC1c1c(F)cccc1F)c1ccccc1C(F)(F)F` (stereo not shown) [Compound 323], under setting [4], the logP is 3.43^[b]. As to `O=C(NC1CC1c1ccc(Cl)cc1)c1ccsc1I` (stereo not shown) [Compound 460], the logP runs as follows: under setting [4], 2.94^[b]; under setting [5], 2.93^[c];.

Take `O=C(NC1CCC1c1ccc(F)cc1C(F)(F)F)c1ncccc1Cl` (stereo not shown) [Compound 478]: the logP under setting [4] was 3.39^[b].

On to `Cn1cc(C(=O)NC2CC2c2ccccc2)c(C(F)(F)F)n1` (stereo not shown) [Example 4], for which the logP under setting [2] is 2.34^[b].

For `Cc1nn(C)c(F)c1C(=O)NC1CC1c1ccccc1` (stereo not shown) [Example 5], the logP under setting [2] is 2.00^[b]. Regarding `Cc1nn(C)cc1C(=O)NC1CC1c1ccccc1` (stereo not shown) [Example 6], the logP under setting [2] was 1.70^[b]. Same read-out and setting: the result for `Cc1nc(C(F)(F)F)c(C(=O)NC2CC2c2ccccc2)s1` (stereo not shown) [Example 8] reads 2.66^[b]; that for `Cc1nn(C)c(Cl)c1C(=O)NC1CC1c1ccccc1` (stereo not shown) [Example 9], 2.12^[b]; that for `Cc1nn(C)c(F)c1C(=O)NC1CC1c1ccc(Cl)cc1` (stereo not shown) [Example 12], 3.04^[b]. `Cc1nn(C)c(C)c1C(=O)NC1CC1c1ccc(Cl)cc1` (stereo not shown) [Example 13]: the logP under setting [2] was 2.89^[b].

For the compound `Cc1nn(C)c(Cl)c1C(=O)NC1CC1c1ccc(Cl)cc1` (stereo not shown) [Example 14], the logP under setting [2] is 2.22^[b]. Turning to `Cc1nn(C)c(C)c1C(=O)NC1CC1c1ccc(F)cc1` (stereo not shown) [Example 15], under setting [2], the logP is 2.84^[b]. Take `Cc1nn(C)cc1C(=O)NC1CC1c1ccc(F)cc1` (stereo not shown) [Example 16]: the logP under setting [2] is 2.13^[b]. On the same count and under the same terms, the value for `Cc1nn(C)c(F)c1C(=O)NC1CC1c1ccc(F)cc1` (stereo not shown) [Example 18] was 3.01^[b]; that for `Cc1nn(C)cc1C(=O)NC1CC1c1ccc(Cl)cc1` (stereo not shown) [Example 19] was 2.63^[b]; that for `Cc1nn(C)c(C)c1C(=O)NC1CC1c1ccc(Br)cc1` (stereo not shown) [Example 21] was 3.26^[b]. Same read-out and setting: the result for `Cc1nn(C)cc1C(=O)NC1CC1c1ccc(Br)cc1` (stereo not shown) [Example 23] reads 3.20^[b]; that for `Cn1cc(C(=O)NC2CC2c2ccc(Br)cc2)c(C(F)(F)F)n1` (stereo not shown) [Example 25], 3.23^[b].

`Cc1nc(C(F)(F)F)c(C(=O)NC2CC2c2ccc(F)cc2)s1` (stereo not shown) [Example 26]: the logP under setting [2] was 3.87^[b]. Turning to `Cc1nc(C(F)(F)F)c(C(=O)NC2CC2c2ccc(Cl)cc2)s1` (stereo not shown) [Example 28], the logP under setting [2] is 4.35^[b]. Consider `O=C(NC1CC1c1ccc(Cl)cc1)c1ccc(Cl)nc1` (stereo not shown) [Example 31], for which the logP under setting [2] is 3.53^[b].

For the compound `O=C(NC1CC1c1ccc(Cl)cc1)c1cccnc1Cl` (stereo not shown) [Example 34], the logP was 2.43^[b] under setting [2] and 2.39^[c]; (HPLC on reversed phase columns, method [c], pH 7.8). Turning to `O=C(NC1CC1c1ccc(Br)cc1)c1cccnc1Cl` (stereo not shown) [Example 35], under setting [2], the logP was 2.34^[b]. For `O=C(NC1CC1c1ccc(F)cc1)c1cnc(Cl)cc1Cl` (stereo not shown) [Example 36], the logP under setting [2] was 2.70^[b]. The same measure, in the same setting: the value for `O=C(NC1CC1c1ccccc1)c1ccncc1` (stereo not shown) [Example 39] was 1.30^[b].

(Values after patent US20160075653A1, “NEMATICIDAL N-(PHENYLCYCLOALKYL)CARBOXAMIDES AND N-(PHENYLCYCLOALKYL)THIOCARBOXAMIDES” (BAYER CROPSCIENCE AKTIENGESELLSCHAFT, priority 2013, published 2016).)
